Assay results as given in patent publication US3980794A, “Method for promoting growth of poultry with 3-(5-nitro-2-imidazolyl)pyrazoles” (Eli Lilly and Company, priority 1975, dated 1976).
≈ marks a conversion by molar mass, not a printed value. Like-named read-outs stand apart in the source and are kept apart here.

Experiments:
Salmonella typhimurium = assay: Activity against Salmonella typhimurium in chicks when administered in the feed (Experiment 4); type: in vivo; settings: for Final Avg. Chicken Wt.: tenth day
Experimental: The activity of certain of the nitroimidazoles against Salmonella typhimurium in chicks when administered in the feed was determined.
One-day-old chicks, divided into groups of 12, were given compound 1, 6, or 7 in the feed at levels of 100 g. per ton, 50 g. per ton, 25 g. per ton, and 10 g. per ton continuously throughout the experiments. Several replicates of nonmedicated infected control groups were included. Later on day 1, all replicates were given 50.0 ml. of a tryptose broth culture of S. typhimurium as their initial liquid for drinking. This was placed in the cage waterer and served as the challenge.
Daily records of mortality were maintained and survivors were weighed on the tenth day of the experiment, the day of termination. The compounds tested are identified by the numbers 1, 6, and 7, as set forth hereinabove. In the chart, column 1 lists the test compound; column 2, the dosage level of test compound in grams per ton of feed; column 3 lists the number of replicates run on each compound at each dosage level; column 4 lists the survival ratio; and column 5, the final average chicken weight.

[1] = tested on: Clostridium innocuum 1373; assay: Susceptibility of anaerobic bacteria, agar dilution; type: cell-based; settings: read-out: 24 Hr. Minimum Inhibitory Concentration
Clostridium ramosum 1313 = assay: as above; type: cell-based; settings: read-out: 24 Hr. Minimum Inhibitory Concentration
[2] = tested on: Clostridium septicum 1128; assay: as above; type: cell-based; settings: 24 h, read-out: 24 Hr. Minimum Inhibitory Concentration
[3] = tested on: Clostridium septicum bovine; assay: as above; type: cell-based; settings: 24 h, read-out: 24 Hr. Minimum Inhibitory Concentration
[4] = tested on: Peptostreptococcus intermedius 1264; assay: as above; type: cell-based; settings: 24 h; Peptostreptococcus intermedius 1264; read-out: 24 Hr. Minimum Inhibitory Concentration
[5] = tested on: Propionibacterium acnes 79; assay: as above; type: cell-based; settings: read-out: 24 Hr. Minimum Inhibitory Concentration
[6] = tested on: Bacteroides fragilis sp. vulgatus 1211; assay: as above; type: cell-based; settings: 24 h, read-out: 24 Hr. Minimum Inhibitory Concentration
[7] = tested on: Fusobacterium necrophorum 13859; assay: as above; type: cell-based; settings: read-out: 24 Hr. Minimum Inhibitory Concentration
[8] = tested on: Veillonella alcalescens 1; assay: as above; type: cell-based; settings: read-out: 24 Hr. Minimum Inhibitory Concentration
[9] = [Clostridium] innocuum, 1373, 24 h
[10] = Thomasclavelia ramosa, 1313, 24 h
[11] = Fusobacterium necrophorum, 13859, 24 h
[12] = 24 h, Clostridium innocuum 1373
[13] = Thomasclavelia ramosa, 24 h, Clostridium ramosum 1313
[14] = Cutibacterium acnes, 24 h, Propionibacterium acnes 79
[15] = Bacteroides fragilis sp. vulgatus 1211
[16] = 24 h, Fusobacterium necrophorum 13859
[17] = Veillonella parvula, 24 h, Veillonella alcalescens 1

SMILES	Survival Ratio (Salmonella typhimurium; 10 g./ton in feed)	Final Avg. Chicken Wt. (Salmonella typhimurium; 10 g./ton in feed)	Survival Ratio (Salmonella typhimurium; 25 g./ton in feed)	Final Avg. Chicken Wt. (Salmonella typhimurium; 25 g./ton in feed)	Survival Ratio (Salmonella typhimurium; 50 g./ton in feed)	Final Avg. Chicken Wt. (Salmonella typhimurium; 50 g./ton in feed)	Survival Ratio (Salmonella typhimurium; 100 g./ton in feed)	Final Avg. Chicken Wt. (Salmonella typhimurium; 100 g./ton in feed)	MIC [1, 9]	MIC (Clostridium ramosum 1313; [10])	MIC [2]	MIC [3]	MIC [4]	MIC ([5]; Cutibacterium acnes, 79, 24 h)	MIC ([6]; Bacteroides fragilis)	MIC [7, 11]	MIC ([8]; Veillonella parvula, 1, 24 h)	MIC [1, 12]	MIC (Clostridium ramosum 1313; [13])	MIC [5, 14]	further results
Cn1nc(-c2ncc([N+](=O)[O-])n2C)c(C#N)c1N [Compound 1, 5-Amino-1-methyl-3-(1-methyl-5-nitro-2-imidazolyl)pyrazole-4-carbonitrile]	28/36	97 g	36/36	121 g	36/36	116 g	35/36	105 g	< 0.125 µg/mL	< 0.125 µg/mL	< 0.125 µg/mL	< 0.125 µg/mL	0.5 µg/mL (≈ 2.02 µM)	< 0.125 µg/mL	< 0.125 µg/mL	< 0.125 µg/mL	< 0.125 µg/mL	–	–	–	–
Cn1nc(-c2ncc([N+](=O)[O-])n2C)c(C(N)=O)c1N [Compound 2, 5-Amino-1-methyl-3-(1-methyl-5-nitro-2-imidazolyl)pyrazole-4-carboxamide]	–	–	–	–	–	–	–	–	< 0.125 µg/mL	< 0.125 µg/mL	< 0.125 µg/mL	< 0.125 µg/mL	1 µg/mL (≈ 3.77 µM)	< 0.125 µg/mL	< 0.125 µg/mL	< 0.125 µg/mL	< 0.125 µg/mL	–	–	–	–
COC=Nc1c(C#N)c(-c2ncc([N+](=O)[O-])n2C)nn1C [Compound 6, Methyl N-[4-cyano-1-methyl-3-(1-methyl-5-nitro-2-imidazolyl)pyrazol-5-yl]formimidate]	33/36	110 g	36/36	119 g	35/36	125 g	33/36	101 g	< 0.125 µg/mL	< 0.125 µg/mL	< 0.125 µg/mL	< 0.125 µg/mL	1 µg/mL (≈ 3.46 µM)	< 0.125 µg/mL	< 0.125 µg/mL	< 0.125 µg/mL	< 0.125 µg/mL	–	–	–	–
CCCCOC=Nc1c(C#N)c(-c2ncc([N+](=O)[O-])n2C)nn1C [Compound 7, Butyl N-[4-Cyano-1-methyl-3-(1-methyl-5-nitro-2-imidazolyl)-pyrazol-5-yl]formimidate]	25/36	100 g	34/36	117 g	36/36	121 g	33/36	102 g	< 0.125 µg/mL	< 0.125 µg/mL	< 0.125 µg/mL	< 0.125 µg/mL	2 µg/mL (≈ 6.04 µM)	< 0.125 µg/mL	< 0.125 µg/mL	< 0.125 µg/mL	< 0.125 µg/mL	–	–	–	–
CC(=O)Nc1c(C(=O)O)c(-c2ncc([N+](=O)[O-])n2C)nn1C [Compound 12, 5-acetamido-1-methyl-3-(1-methyl-5-nitro-2-imidazolyl)pyrazole-4-carboxylic acid]	–	–	–	–	–	–	–	–	–	–	4 µg/mL (≈ 13 µM)	8 µg/mL (≈ 26 µM)	32 µg/mL (≈ 104 µM)	–	–	–	–	8 µg/mL (≈ 26 µM)	4 µg/mL (≈ 13 µM)	1 µg/mL (≈ 3.24 µM)	MIC [6, 15]: 2 µg/mL (≈ 6.49 µM); MIC [7, 16]: < 0.125 µg/mL; MIC [8, 17]: 0.5 µg/mL (≈ 1.62 µM)
C=CCOC=Nc1c(C#N)c(-c2ncc([N+](=O)[O-])n2C)nn1C [Compound 13A, Allyl N-[4-cyano-1-methyl-3-(1-methyl-5-nitro-2-imidazolyl)pyrazol-5-yl]formimidate]	–	–	–	–	–	–	–	–	–	–	0.5 µg/mL (≈ 1.59 µM)	0.5 µg/mL (≈ 1.59 µM)	16 µg/mL (≈ 50.7 µM)	–	–	–	–	1 µg/mL (≈ 3.17 µM)	4 µg/mL (≈ 12.7 µM)	< 0.125 µg/mL	MIC [6, 15]: < 0.125 µg/mL; MIC [7, 16]: < 0.125 µg/mL; MIC [8, 17]: < 0.125 µg/mL
CCCCC(CC)COC=Nc1c(C#N)c(-c2ncc([N+](=O)[O-])n2C)nn1C (stereo not drawn) [Compound 13D, 2-Ethylhexyl N-[4-cyano-1-methyl-3-(1-methyl-5-nitro-2-imidazolyl)pyrazol-5-yl]formimidate]	–	–	–	–	–	–	–	–	–	–	2 µg/mL (≈ 5.16 µM)	4 µg/mL (≈ 10.3 µM)	16 µg/mL (≈ 41.3 µM)	–	–	–	–	1 µg/mL (≈ 2.58 µM)	1 µg/mL (≈ 2.58 µM)	2 µg/mL (≈ 5.16 µM)	MIC [6, 15]: 1 µg/mL (≈ 2.58 µM); MIC [7, 16]: < 0.125 µg/mL; MIC [8, 17]: 0.25 µg/mL (≈ 0.645 µM)
